From US20250177458A1, “USES OF BIFIDOBACTERIUM LONGUM MICROORGANISMS HAVING THE CAPACITY TO DEGRADE BOTH HMO AND PLANT-DERIVED GLYCANS” (SOCIETE DES PRODUITS NESTLE S.A., priority 2022, published 2025)

Test system: transitional B. longum isolate NCC5004
Assay: in vitro tube fermentation of fecal sample supplemented with isolate NCC5004, isolate-specific qPCR
Format: cell-based, Bifidobacterium longum
Conditions: HMO 5 g/L as single carbon source, toddler fecal community, after 24 hr and 48 hrs
Procedure: All bacterial strains retrieved from the Nestlé Culture Collection (NCC) were reactivated from a freeze-dried stock using two successive culturing steps (16 h, 37° C., anaerobiosis) in MRS (De Man, Rogosa and Sharpe) media supplemented with 0.05% cysteine (MRSc). Reactivated cultures were then centrifuged, washed, and resuspended in 1 volume of PBS.
For in vitro tube fermentation experiments, pulverized or homogenized stool samples were mixed 10-fold by adding PBS/glycerol (1/10) (w/v) before centrifugation at 600×g for 2 minutes. The slurry and pellet were then stored at −80° C. Frozen slurry of a fecal sample was thawed from storage and then use for the in vitro tube fermentation assays. The fecal slurry was inoculated with media based on that disclosed in Gibson et al. (Applied and Environmental Microbiology; 1988; 54(11); 2750-2755) with some modifications, specifically the exclusion of any carbon source. […]
The in vitro tube fermentation assays (n=3 per testing group) were set up at 37° C. with gentle stirring in an anaerobic environment (gas flow of pure N2 and a mix of N2, H2, and CO2 to ensure anaerobic conditions). Aliquots (0.5 mL) from fermentation tubes were taken and DNA was extracted, purified and analyzed at the time points indicated (0 hr, 24 hr and 48 hr). […]

Row | Substance | growth of NCC5004 (qPCR absolute abundance) compared to baseline (0 hrs)
1 | 2′ fucosyllactose [2′FL] | significant growth
2 | 3-fucosyllactose [3 FL] | significant growth
